According to US20040242565A1, “Medicinal composition for prevention of or treatment for cerebrovascular disorder and cardiopathy” (priority 2001, published 2004):
Like-named read-outs stand apart in the source and are kept apart here.

Legend:
Format in all cases: in vivo
[1] = system: Dog Delayed Cerebral Vasospasm Model; assay: Effect on dog delayed cerebral vasospasm model (basilar artery diameter by angiography); conditions: seventh day, separate administration
Experimental: An adult mongrel dog was anesthetized with pentobarbital and 5 ml of autologous blood was injected into cisterna magna (on the first day). On the third day, 5 ml of autologous blood was injected into cisterna magna under thiamyral anesthesia. Before the injection of autologous blood on the first day and on the seventh day, angiographin was injected into vertebral artery, followed by photographing blood vessel of basilar artery. […] As a control, physiological saline was administered into vein over 30 minutes continuously. After the administration of each drug, the blood vessel was photographed to measure the diameter of basilar artery.

[2] = system: Vasopressin Induced Rat Angina Pectoris Model; conditions: half an hour before vasopressin 0.5 U/kg i.v., separate administration
Experimental: Half an hour later, vasopressin (0.5 U/kg) was intravenously administered. The ST segment depression was used as an index showing the degree of a myocardial ischemia. […] ST segment in an electrocardiogram was measured for comparison with a ST segment before the vasopressin administration. […] In addition, occurrence of a myocardial ischemia was observed.

[3] = system: Rat Cerebral Infarction Model; assay: Inhibitory effect of cerebral infarction in rat cerebral infarction model (brain microthromboembolism); conditions: 10 mg/kg intraperitoneally once a day until the fourth day, separate administration
Experimental: A rat brain microthromboembolism model described in Stroke, 31, 2245-2255 (2000) was used as a cerebral infarction model. […] After the model was prepared, each drug was administered once a day until the fourth day. On the fifth day, the brain was extracted and the size of a cerebral infarction was histopathologically measured.

In the case of `COCCOC(=O)C1=C(C)NC(C)=C(C(=O)OC(C)C)C1c1cccc([N+](=O)[O-])c1` (centres unmarked) [Nimodipine, nimodipine], the “Basilar artery diameter (diameter before blood injection: 100%)” value ([1]; 0.1 mg/kg into vein over 30 minutes) is reported as 55.7% and the “Basilar artery diameter (diameter before blood injection: 100%)” value ([1]; 1 mg/kg into vein over 30 minutes) is reported as 58.0%.

In the case of `CC(C)NCC(O)COc1cccc2ccccc12` (centres unmarked) [propranolol], the “improvement of ST segment depression (index of myocardial ischemia)” value ([2]; propranolol 100 mg/kg orally) is reported as “not improved”.

For `O=C([O-])/C=C/c1ccc(Cn2ccnc2)cc1.[Na+]` [sodium ozagrel], the “inhibition of cerebral infarction (size measured histopathologically, fifth day)” value [3] was “not inhibited”.

With isosorbide nitrate the “improvement of ST segment depression (index of myocardial ischemia)” value ([2]; isosorbide nitrate 30 mg/kg orally) was “not improved”.
